Measurements published in patent US6323187A, “Therapeutic dinucleotide and derivatives” (priority 1999, dated 2001).

Experiments:
P2Y2 = molecular target: T1, P2Y2 (Homo sapiens, UniProt P41231); experiment: Inositol phosphate assay, P2Y2 receptor; assay type: cell-based; settings: IA = no agonist activity at 30 μM
T1 construct: expressed in transfected cells
Description: (§1) The pharmaceutical utility of the compounds of this invention is indicated by the inositol phosphate assay for P2Y2 and other P2Y receptor activity. This widely used assay, as described in E. Lazarowski, et al., Brit. J. Pharm. 116, 1619-27 (1995), relies on the measurement of inositol phosphate formation as a measurement of activity of compounds activating receptors linked via G-proteins to phospholipase C.
(§2) The compounds of Formula I was tested for its ability to elicit P2Y1, P2Y2, P2Y4 and P2Y6 receptor activity using the inositol phosphate assay as described by E. Lazarowski, et al., Brit. J. Pharm. 116, 1619-27 (1995).

P2Y1 = experiment: Inositol phosphate assay, P2Y1 receptor; assay type: cell-based; settings: IA = no agonist activity at 30 μM
Description: as §1, §2

P2Y6 = experiment: Inositol phosphate assay, P2Y6 receptor; assay type: cell-based; settings: IA = no agonist activity at 30 μM
Description: as §1, §2

P2Y4 = P2Y4 (Homo sapiens, UniProt P51582); experiment: Inositol phosphate assay, P2Y4 receptor; assay type: cell-based; settings: IA = no agonist activity at 30 μM
Chain of P2Y4 (P51582 whole entry, species assumed): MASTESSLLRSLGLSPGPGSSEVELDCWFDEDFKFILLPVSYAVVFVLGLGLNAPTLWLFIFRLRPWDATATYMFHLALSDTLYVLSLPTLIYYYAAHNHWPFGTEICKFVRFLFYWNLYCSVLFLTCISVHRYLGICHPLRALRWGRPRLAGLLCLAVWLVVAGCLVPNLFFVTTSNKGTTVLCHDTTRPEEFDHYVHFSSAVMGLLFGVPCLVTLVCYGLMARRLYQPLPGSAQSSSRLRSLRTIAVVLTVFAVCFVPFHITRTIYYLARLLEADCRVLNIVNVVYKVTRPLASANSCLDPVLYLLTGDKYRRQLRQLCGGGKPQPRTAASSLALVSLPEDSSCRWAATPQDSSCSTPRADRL
Description: as §1, §2

[1] = test system: human nasal epithelial cells; experiment: Chloride secretion in human nasal airway cells (change in ISC); assay type: cell-based; settings: more potent than U2 P4; amiloride 100 μM present; apical addition
Description: Airway epithelial cells were desegregated and isolated from freshly excised human nasal surgical specimens (Yankaskas, et al., Am. Rev. Respir. Dis. 132, 1281-1287 (1985)). Confluent monolayers were cultured on permeable collagen matrix supports in F-12 hormone-supplemented medium (Wu, et. al., Am. Rev. Respir. Dis. 132, 311-320 (1985)). Cells were incubated at 37° C. and grown to confluence. Development of transepithelial resistance was monitored to determine the formation of tight junctions between the cells. After formation of tight junctions, was confirmed, the matrix supports containing the cultures were mounted in modified Using chambers. […]
Polycarbonate Using chambers were milled to fit the plastic cups that supported the permeable collagen matrix on which the cells were grown. Bioelectric properties including ISC, transepithelial potential difference and resistance were monitored. Short-circuit current (ISC) was measured with a digital voltmeter (UNC Electronics, Chapel Hill, N.C.) and plotted on a strip-chart recorder. The open circuit potential was recorded periodically, and conductance was monitored in the voltage clamp mode by the current deflection in response to a 10-mV voltage pulse.
A stable baseline of ISC was recorded and amiloride (100 μM) was added to the solution bathing the apical surface to block sodium absorption. […] The change in ISC was recorded. […]

in vitro = settings: human, bronchial epithelial cells, pH 7.2
Description: Epithelial cells were grown as monolayers on an airliquid interface in ALI medium. Assays were conducted on fully differentiated cells in KRB-Ringer solution (pH 7.2) at 37° C. with 0.1 mM nucleotide substrate. Aliquots of airway surface liquid were removed at 5, 10, 15, 20, 40 and 60 minutes. The metabolism was stopped by boiling and filtering the aliquots, and the samples were analyzed by high performance liquid chromatography using the following conditions: C- 18 column with a 55 min gradient of 10-100 mM KH2 PO4 and constant 8 mM tetrabutyl ammonium hydrogen sulfate and 10% methanol).

sputum production = settings: normal healthy volunteers; background section; cited from earlier work
Type II alveolar cells = settings: Gobran (1994); cited from earlier work
P2Y2 receptor = settings: H. Brown, et al. (1991); cited from earlier work
airway epithelial cells = airway epithelial cells in vitro; S. Mason, et al. (1991); cited from earlier work
cough clearance = settings: patients with PCD; P. Noone, et al. (1996); cited from earlier work
[2] = test system: human airway epithelial cells; settings: human airway epithelial cells in vitro; D. Drutz, et al. (1996); cited from earlier work
goblet cells = settings: in vitro; M. Lethem, et al. (1993); cited from earlier work
[3] = test system: lung mucociliary clearance; settings: normal volunteers; K. Olivier, et al. (1996); cited from earlier work

T1 sequence (P41231 whole entry): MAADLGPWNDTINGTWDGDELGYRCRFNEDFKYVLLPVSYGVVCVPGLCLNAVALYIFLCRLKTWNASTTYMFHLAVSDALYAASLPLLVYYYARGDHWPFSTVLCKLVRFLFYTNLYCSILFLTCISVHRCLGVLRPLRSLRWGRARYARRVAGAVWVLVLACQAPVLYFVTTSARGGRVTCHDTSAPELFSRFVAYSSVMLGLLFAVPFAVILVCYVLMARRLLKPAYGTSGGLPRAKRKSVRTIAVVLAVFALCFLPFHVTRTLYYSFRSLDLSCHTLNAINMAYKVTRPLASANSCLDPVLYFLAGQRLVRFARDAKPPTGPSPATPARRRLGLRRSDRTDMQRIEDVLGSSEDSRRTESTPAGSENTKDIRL

Row | EC50 (P2Y2) [µM] | EC50 (P2Y1) [µM] | EC50 (P2Y6) [µM] | EC50 (P2Y4) [µM] | metabolised at 1 h, 100 µM (in vitro) [%] | SMILES | further results
1 | > 30 | > 30 | > 30 | > 30 | – | Nc1ccn([C@@H]2O[C@H](COP(=O)(O)OP(=O)(O)OP(=O)(O)OP(=O)(O)OC[C@H]3O[C@@H](n4ccc(N)nc4=O)[C@H](O)[C@@H]3O)[C@@H](O)[C@H]2O)c(=O)n1 [C2 P4] | –
2 | 0.45 | > 30 | 3.5 | 0.65 | – | Nc1ccn([C@@H]2O[C@H](COP(=O)(O)OP(=O)(O)OP(=O)(O)OP(=O)(O)OC[C@H]3O[C@@H](n4ccc(=O)[nH]c4=O)[C@H](O)[C@@H]3O)[C@@H](O)[C@H]2O)c(=O)n1 [CP4 U, P^1-(cytidine 5'-)-P^4-(uridine 5'-)-tetraphosphate] | potency relative to U2 P4 in the chloride secretion assay [1]: approximately ten-fold
3 | – | – | – | – | 40 | O=c1ccn([C@@H]2O[C@H](COP(=O)(O)OP(=O)(O)OP(=O)(O)OP(=O)(O)OC[C@H]3O[C@@H](n4ccc(=O)[nH]c4=O)[C@H](O)[C@@H]3O)[C@@H](O)[C@H]2O)c(=O)[nH]1 [U2 P4, P^1,P^4 -Di(uridine 5'-)tetraphosphate] | sputum production (sputum production): increase sputum production
4 | – | – | – | – | 100 | O=c1ccn([C@@H]2O[C@H](COP(=O)(O)OP(=O)(O)OP(=O)(O)O)[C@@H](O)[C@H]2O)c(=O)[nH]1 [UTP, uridine 5'-triphosphate] | release of surfactant from Type II alveolar cells (Type II alveolar cells): release of surfactant; intracellular Ca^++ (P2Y2 receptor): increase intracellular Ca^++; Cl^- secretion (airway epithelial cells): increase Cl^- secretion; cough clearance (cough clearance): significantly enhances cough clearance; cilia beat frequency [2]: increase cilia beat frequency; mucin secretion by goblet cells (goblet cells): increase both the rate and total amount of mucin secretion; lung mucociliary clearance [3]: improvement in lung mucociliary clearance; side-effects [3]: without any significant side-effects
